Test results from patent US9359281B2, “Enantiomers of 2-hydroxy derivatives of fatty acids” (UNIVERSITAT DE LES ILLES BALEARS, priority 2011, dated 2016).

Assays:
[1] = system: U118 cells; experiment: Nuclear SM levels in U118 cells; assay type: cell-based, human; conditions: U118, 200 μM, 24 hours
Protocol: FIG. 3. Compound 2OHOA induces an increase in nuclear SM. U118 cancer cells were treated for 24 hours with a vehicle (control) or with 2OHOA at a concentration of 200 μM. The values of the ordinate axis represent the average±ESM (n=3-5) of levels of SM compared to the untreated control (100%).
Another effect associated to the reduction in cell proliferation is an increase in the levels of nuclear SM.

[2] = system: Ras protein; experiment: Ras translocation from membrane to cytoplasm by confocal microscopy; assay type: cell-based; conditions: human glioma, lung cancer and leukaemia cells
Protocol: The high levels of 2OHOA and SM in the membrane impede the anchoring of the Ras protein on the membrane.
2OHOA increases levels of SM in tumoral cells treated as explained above. […] SM is lipid in the membrane which impedes the bonding of certain molecules involved in the proliferation of cells, such as the Ras protein. In this way, levels of Ras were measured by confocal microscopy, using an antibody marked fluorescently, and we were able to detect that the marker passed from the membrane (FIG. 6: 95-99% of total detected fluorescence in the membrane before treatment) to the cytoplasm (94-97% of fluorescence detected in the inside of the cell after treatment with 2OHOA) in human glioma, lung cancer and leukaemia cells. The translocation of Ras from the membrane to the cytoplasm means an absence of productive interaction between Ras and Receptor-Tirosine-Kinase (RTK) or between Ras and Raf, so the proteins in MAP kinase chain are not activated and the tumoral cells cease to proliferate and programmed cell death starts. Changes in cell physiology induced by the molecules of present invention, have as intermediate effects (prior to the cancer cells death or the regulation of the activity in other cells), the induction of dramatic reductions in DHFR levels and dramatic increases of GFAP levels (FIG. 6).

[3] = system: enzyme EC 1.14.19.1; experiment: [3H]oleate incorporation in U118 cell membranes; assay type: cell-based, human; conditions: U118, 200 μM, 24 h
Protocol: FIG. 10. Regulation of the activity of enzyme 1.14.19.1.
Oleic acid is synthesised from esteric acid by the activity of the estearoil-CoA desaturase enzyme (EC 1.14.19.1). This enzyme is crucial in lipid metabolism, as it is a limitant in the synthesis of fatty acids. To see whether this reduction was due to regulation of enzyme EC 1.14.19.1, we incubated U118 cells in the presence or absence of 2OHOA (200 μM, 24 h) and, later, in the presence of [^3H]oleate (5 minutes).

[4] = system: A172 cells; experiment: Levels of SM in cell membranes, A172; assay type: cell-based, human; conditions: A172, 200 μM [−]2OHOA
Protocol: (§1) The levels of SM, cultivated in the absence (control) or presence of 200 μM of [−]2OHOA, in normal cell membranes (MRC-5 and IMR90) were measured, and also in several types of tumoral cells (see Table 2). In all cases, we detected that the membranes of tumoral cells have SM levels of about half or a third of that in normal cells (FIG. 1). We can therefore assert that SM concentration is a biomarker which indicates tumorgenesis in human cells. On the other hand, treatments with the molecules of the present invention induce an increase of SM in the tumour cells which is not naturally occurring. […] For example, the spectrophotometry determination of solution fluorescence of the SM levels is a very simple, quick and efficient analysis method (FIG. 1D). Thus, this invention has generated a method for diagnosis for detecting the described pathological processes and pathologies in which there are SM level changes, and also for monitoring the efficiency of the therapy using molecules of the present invention and others of similar activity. Based on this knowledge, this invention also includes kits for diagnosing these diseases.

[5] = system: C-6 cells; experiment: Cell growth inhibition, C-6; assay type: cell-based, rat; design: key: +: inhibition of cell growth; −: absence of effect
[6] = system: SF268 cells; experiment: Levels of SM in cell membranes, SF268; assay type: cell-based, human; conditions: SF268, 200 μM [−]2OHOA
Protocol: as §1

Row | Compound | level of nuclear SM [1] | Ras fluorescence detected in the inside of the cell after treatment [2] | incorporation of radioactive oleic acid in cell membranes [3] | % SM after treatment [4] | Effect (anti-proliferation effect) [5] | % SM after treatment [6]
1 | CCCCCCCC/C=C\CCCCCCC(O)C(=O)O (racemic) [2OHOA, 2-hydroxyoleic acid] | increases in the level of nuclear SM | 94-97% | significantly less than in control cells | – | – | –
2 | CCCCCCCC/C=C\CCCCCCC(O)C(=O)O (stereo not drawn) [[−]2OHOA] [[−] HOOC—HOCH—(CH2)6—(CH═CH—CH2)1—(CH2)6—CH3] | – | – | – | 23% | + | 26%
